Assay results as given in the supplement of paper PMC11368000.

Assays:
Conditions in all cases: exposure time: 90 min
1083 [1] = donor line of iPSC-derived cardiomyocytes; test: POD (EC10) for decrease in total cell number (cytotoxicity) vs vehicle; higher = less potent (higher point of departure)
Experimental: (§1)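 Human iPSC-derived cardiomyocytes from 16 donors were exposed for 90 min at 37 °C to each PFAS at 0.1, 1, 10 and 100 µM in 0.5% DMSO, 384-well plates. Kinetic Ca2+ flux (FLIPR) and Hoechst nuclei counts were normalised to vehicle wells and fitted with a hierarchical Bayesian Hill model to give donor-specific PODs: EC05 for beat-rate increase or decrease and for decay-to-rise ratio increase (QT proxy), EC95 for peak-frequency loss (asystole), EC10 for total cell number loss. 0.03 µM is the lower bound.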

1118 [2] = donor line of iPSC-derived cardiomyocytes; test: as above
Experimental: as §1

1309 [3] = donor line of iPSC-derived cardiomyocytes; test: as above
Experimental: as §1

1368 [4] = donor line of iPSC-derived cardiomyocytes; test: as above
Experimental: as §1

1516 = donor line of iPSC-derived cardiomyocytes; test: as above
Experimental: as §1

1518 = donor line of iPSC-derived cardiomyocytes; test: as above
Experimental: as §1

1535 [5] = donor line of iPSC-derived cardiomyocytes; test: as above
Experimental: as §1

1083 [6] = test: POD (EC05) for increase in Ca2+ transient decay-to-rise ratio (QT prolongation) vs vehicle; higher = less potent (higher point of departure)
Experimental: as §1

1118 [7] = test: as above
Experimental: as §1

11235 = donor line of iPSC-derived cardiomyocytes; test: as above
Experimental: as §1

1309 [8] = test: as above
Experimental: as §1

1368 [9] = test: as above
Experimental: as §1

1392 = donor line of iPSC-derived cardiomyocytes; test: as above
Experimental: as §1

1434 = donor line of iPSC-derived cardiomyocytes; test: as above
Experimental: as §1

1535 [10] = test: as above
Experimental: as §1

1565 = donor line of iPSC-derived cardiomyocytes; test: as above
Experimental: as §1

20032 = donor line of iPSC-derived cardiomyocytes; test: as above
Experimental: as §1

20084 = donor line of iPSC-derived cardiomyocytes; test: as above
Experimental: as §1

30145 = donor line of iPSC-derived cardiomyocytes; test: as above
Experimental: as §1

30171 = donor line of iPSC-derived cardiomyocytes; test: as above
Experimental: as §1

SMILES	POD vs vehicle 1083 [1]	POD vs vehicle 1118 [2]	POD vs vehicle 1309 [3]	POD vs vehicle 1368 [4]	POD vs vehicle 1516	POD vs vehicle 1518	POD vs vehicle 1535 [5]	POD vs vehicle 1083 [6]	POD vs vehicle 1118 [7]	POD vs vehicle 11235	POD vs vehicle 1309 [8]	POD vs vehicle 1368 [9]	POD vs vehicle 1392	POD vs vehicle 1434	POD vs vehicle 1535 [10]	POD vs vehicle 1565	POD vs vehicle 20032	POD vs vehicle 20084	POD vs vehicle 30145	POD vs vehicle 30171
NC(=O)C(F)(F)C(F)(F)C(F)(F)C(F)F	> 100 µM	> 100 µM	> 100 µM	> 100 µM	> 100 µM	> 100 µM	> 100 µM	> 100 µM	7.19 µM	> 100 µM	> 100 µM	> 100 µM	> 100 µM	0.543 µM	> 100 µM	1.78 µM	0.131 µM	> 100 µM	> 100 µM	17 µM
OCC(O)CC(F)(F)C(F)(F)C(F)(F)C(F)(F)C(F)(F)C(F)(F)C(F)(F)C(F)(F)F (stereo unspecified) [1-(Perfluorofluorooctyl)propane-2,3-diol]	> 100 µM	> 100 µM	> 100 µM	> 100 µM	> 100 µM	> 100 µM	> 100 µM	> 100 µM	> 100 µM	> 100 µM	> 100 µM	> 100 µM	> 100 µM	> 100 µM	> 100 µM	> 100 µM	> 100 µM	> 100 µM	> 100 µM	> 100 µM
CC(O)C(F)(F)C(F)(F)F (stereo unspecified) [1-Pentafluoroethylethanol]	> 100 µM	> 100 µM	> 100 µM	> 100 µM	> 100 µM	> 100 µM	> 100 µM	> 100 µM	> 100 µM	> 100 µM	> 100 µM	> 100 µM	> 100 µM	> 100 µM	> 100 µM	> 100 µM	> 100 µM	> 100 µM	> 100 µM	> 100 µM
OCC(F)(F)C(F)(F)C(F)(F)C(F)F [1H,1H,5H-Perfluoropentanol]	> 100 µM	> 100 µM	> 100 µM	> 100 µM	> 100 µM	> 100 µM	> 100 µM	> 100 µM	> 100 µM	> 100 µM	> 100 µM	> 100 µM	> 100 µM	> 100 µM	> 100 µM	> 100 µM	> 100 µM	5.77 µM	> 100 µM	> 100 µM
O=S(=O)(OCC(F)(F)F)C(F)(F)C(F)(F)C(F)(F)C(F)(F)F [2,2,2-Trifluoroethyl_perfluorobutanesulfonate]	> 100 µM	> 100 µM	> 100 µM	> 100 µM	> 100 µM	> 100 µM	> 100 µM	> 100 µM	> 100 µM	> 100 µM	> 100 µM	> 100 µM	> 100 µM	> 100 µM	> 100 µM	> 100 µM	> 100 µM	> 100 µM	> 100 µM	> 100 µM
O=C(O)C(F)(F)C(F)(F)C(F)F [2,2,3,3,4,4-Hexafluorobutanoic_acid]	> 100 µM	> 100 µM	> 100 µM	> 100 µM	> 100 µM	> 100 µM	> 100 µM	> 100 µM	> 100 µM	> 100 µM	> 100 µM	> 100 µM	> 100 µM	> 100 µM	> 100 µM	> 100 µM	> 100 µM	> 100 µM	> 100 µM	> 100 µM
NC(O)(C(F)(F)F)C(F)(F)F [2-Aminohexafluoropropan-2-ol]	> 100 µM	> 100 µM	> 100 µM	> 100 µM	> 100 µM	> 100 µM	> 100 µM	> 100 µM	> 100 µM	> 100 µM	> 100 µM	> 100 µM	> 100 µM	> 100 µM	> 100 µM	> 100 µM	> 100 µM	> 100 µM	> 100 µM	> 100 µM
O=C(O)CCC(F)(F)C(F)(F)C(F)(F)C(F)(F)C(F)(F)F [2H,2H,3H,3H-Perfluorooctanoic_acid]	> 100 µM	> 100 µM	> 100 µM	> 100 µM	> 100 µM	> 100 µM	> 100 µM	> 100 µM	> 100 µM	> 100 µM	> 100 µM	> 100 µM	> 100 µM	> 100 µM	> 100 µM	> 100 µM	48.4 µM	> 100 µM	> 100 µM	> 100 µM
O=C(O)C=C(C(F)(F)F)C(F)(F)F [3,3-Bis(trifluoromethyl)-2-propenoic_acid]	> 100 µM	> 100 µM	> 100 µM	> 100 µM	> 100 µM	> 100 µM	> 100 µM	> 100 µM	> 100 µM	> 100 µM	> 100 µM	> 100 µM	> 100 µM	> 100 µM	> 100 µM	> 100 µM	> 100 µM	> 100 µM	> 100 µM	> 100 µM
O=C(O)C=CC(F)(C(F)(F)F)C(F)(F)F [3-(Perfluoroisopropyl)-2-propenoic_acid]	> 100 µM	> 100 µM	> 100 µM	> 100 µM	> 100 µM	> 100 µM	> 100 µM	> 100 µM	> 100 µM	> 100 µM	> 100 µM	> 100 µM	> 100 µM	> 100 µM	> 100 µM	> 100 µM	> 100 µM	> 100 µM	> 100 µM	> 100 µM
O=C(O)CCC(F)(F)C(F)(F)C(F)(F)C(F)(F)C(F)(F)C(F)(F)C(F)(F)F [3-Perfluoroheptylpropanoic_acid]	> 100 µM	> 100 µM	> 100 µM	> 100 µM	> 100 µM	> 100 µM	> 100 µM	> 100 µM	> 100 µM	> 100 µM	> 100 µM	> 100 µM	> 100 µM	> 100 µM	> 100 µM	> 100 µM	33.8 µM	36.7 µM	> 100 µM	> 100 µM
O=C(O)CCC(F)(F)C(F)(F)C(F)(F)F [3:3 Fluorotelomer carboxylic acid]	> 100 µM	> 100 µM	> 100 µM	> 100 µM	> 100 µM	> 100 µM	> 100 µM	> 100 µM	> 100 µM	> 100 µM	> 100 µM	> 100 µM	> 100 µM	> 100 µM	> 100 µM	> 100 µM	> 100 µM	> 100 µM	> 100 µM	> 100 µM
OCC(F)(F)C(F)(F)C(F)(F)C(F)(F)C(F)(F)C(F)(F)F [6:1 Fluorotelomer alcohol]	> 100 µM	1.53 µM	98.6 µM	> 100 µM	–	–	> 100 µM	> 100 µM	> 100 µM	> 100 µM	> 100 µM	> 100 µM	> 100 µM	> 100 µM	> 100 µM	> 100 µM	> 100 µM	> 100 µM	> 100 µM	> 100 µM
OCC(F)(F)OC(F)(F)C(F)(F)OC(F)(F)C(F)(F)OC(F)(F)F [Fluorinated_triethylene_glycol_monomethyl_ether]	> 100 µM	> 100 µM	65.6 µM	> 100 µM	> 100 µM	–	> 100 µM	> 100 µM	> 100 µM	> 100 µM	> 100 µM	> 100 µM	> 100 µM	> 100 µM	> 100 µM	> 100 µM	> 100 µM	> 100 µM	> 100 µM	> 100 µM
NC(=O)C(F)(F)C(F)(F)C(F)(F)F [Heptafluorobutyramide]	> 100 µM	> 100 µM	> 100 µM	> 100 µM	> 100 µM	> 100 µM	> 100 µM	> 100 µM	> 100 µM	> 100 µM	> 100 µM	> 100 µM	> 100 µM	> 100 µM	> 100 µM	> 100 µM	–	> 100 µM	> 100 µM	> 100 µM
O=C(O)C(F)(F)C(F)(F)C(F)(F)C(F)(F)C(=O)O [Octafluoroadipic_acid]	> 100 µM	> 100 µM	> 100 µM	> 100 µM	> 100 µM	–	> 100 µM	> 100 µM	> 100 µM	> 100 µM	> 100 µM	> 100 µM	> 100 µM	> 100 µM	> 100 µM	> 100 µM	> 100 µM	> 100 µM	> 100 µM	> 100 µM
O=C(O)C(F)(F)C(F)(F)C(F)(F)C(F)(F)C(F)(F)C(F)(F)F [Perfluoroheptanoic_acid]	> 100 µM	> 100 µM	> 100 µM	> 100 µM	–	23.6 µM	> 100 µM	> 100 µM	> 100 µM	> 100 µM	> 100 µM	> 100 µM	> 100 µM	> 100 µM	> 100 µM	> 100 µM	> 100 µM	> 100 µM	> 100 µM	> 100 µM
NC(=O)C(F)(F)C(F)(F)C(F)(F)C(F)(F)C(F)(F)C(F)(F)C(F)(F)F [Perfluorooctanamide]	> 100 µM	> 100 µM	> 100 µM	> 100 µM	> 100 µM	> 100 µM	> 100 µM	> 100 µM	> 100 µM	> 100 µM	> 100 µM	> 100 µM	> 100 µM	> 100 µM	> 100 µM	> 100 µM	–	–	> 100 µM	> 100 µM
N=C(N)C(F)(F)C(F)(F)C(F)(F)C(F)(F)C(F)(F)C(F)(F)C(F)(F)F [Perfluorooctanamidine]	> 100 µM	> 100 µM	> 100 µM	> 100 µM	> 100 µM	> 100 µM	> 100 µM	> 100 µM	> 100 µM	> 100 µM	> 100 µM	> 100 µM	> 100 µM	> 100 µM	> 100 µM	> 100 µM	–	0.145 µM	> 100 µM	> 100 µM
